# Data: US20110196000A1, “Use of succinate dehydrogenase (SDH) inhibitors in the treatment of plant species from the family of the true grasses” (Bayer CropScience AG, priority 2010, published 2011)
# Tests used:
# Format in all cases: in vivo
# wheat variety Ritmo [1] = assay: Plot trial: chlorophyll content of leaves (pigment extraction method of Ziegler and Ehle)
# wheat variety Ritmo [2] = assay: Plot trial: yield components; conditions: sprays at BBCH 39 and 59
# [3] = system: infection-free wheat plants of the cultivar Passat; assay: Glasshouse trial: temperature of ears and leaves as measure of transpiration activity
# Protocol: (§1) In a glasshouse trial under controlled conditions, the effect of bixafen was investigated on the physiology, morphology and abiotic stress tolerance of infection-free wheat plants of the cultivar […] plants were grown in 10-litre containers over a period of 4 months. The substrate used was standard earth type ED 73 (Fröndenberg, Germany)+C-Horizont+Sand (4:2:1). The supply of nutrient to the plants took place by feeding with a 0.2% strength Flory 2 liquid fertilizer solution (from Euflor, Munich) once every two weeks. The plants were supplied with water as required. In each component of the trial, 10 repetitions were carried out.
# [4] = system: infection-free wheat plants of the cultivar Passat; assay: Glasshouse trial: gas exchange activity of wheat ears; conditions: development stage BBCH 75
# Protocol: as §1
# wheat variety Ritmo [5] = assay: Plot trial in Germany: green leaf area by visual scoring; conditions: sprays at BBCH 39 and 59
# Protocol: In Germany a plot trial was set up with the wheat variety Ritmo in order to investigate the effect of bixafen on the physiology, morphology and abiotic stress tolerance of wheat plants under realistic agricultural conditions. The products under test were applied to the plants, in the form of sequential spray sequences (BBCH 39 and 59). The spray volume was 400 l of water per hectare. In each trial component, 5 repetitions were carried out. [table] The duration of green coloration of the leaf area was captured by regular visual scoring of the fraction of green leaf area.
# [6] = system: infection-free wheat plants of the cultivar Passat; assay: Glasshouse trial: size of the flag leaf; conditions: at BBCH 83-85
# Protocol: (§2) In a glasshouse trial under controlled conditions, the effect of bixafen was investigated on the physiology, morphology and abiotic stress tolerance of infection-free wheat plants of the cultivar […] plants were grown in 10-litre containers over a period of 4 months. The substrate used was standard earth type ED 73 (Fröndenberg, Germany)+C-Horizont+Sand (4:2:1). The supply of nutrient to the plants took place by feeding with a 0.2% strength Flory 2 liquid fertilizer solution (from Euflor, Munich) once every two weeks. The plants were supplied with water as required. In each component of the trial, 10 repetitions were carried out. To prevent infestation with powdery mildew, Proquinazid (Talius® was applied once. The incidence of aphids and spider mites was avoided by treatments with Karate®, Bulldock® and Sumicidin®. The products under test were applied to the plants, in the form of sequential spray sequences (BBCH 39 and 59). The spray volume was 300 l of water per hectare. [table] Morphological parameters measured, additionally, were the length and width, i.e. the size of the flag leaf. This was greatest with the succinate dehydrogenase (SDH) inhibitor bixafen, in comparison to the other comparison fungicides.
# [7] = system: infection-free wheat plants of the cultivar Passat; assay: Glasshouse trial: time of heading (ear emergence); set-up: time of heading of wheat (ears emerged): unit not given here
# Protocol: as §1
# [8] = system: infection-free wheat plants of the cultivar Passat; assay: Glasshouse trial: green leaf area by visual scoring; conditions: glasshouse
# Protocol: as §2, with “The duration” for “Morphological parameters measured, additionally, were the length and width, i.e. the size”, “green coloration of the leaf area” for “flag leaf. This”, “captured on” for “greatest with”, “basis of regular visual scoring of” for “succinate dehydrogenase (SDH) inhibitor bixafen, in comparison to”, “fraction of the green leaf area.” for “other comparison fungicides.”
# [9] = system: infection-free wheat plants of the cultivar Passat; assay: Glasshouse trial: yield components; conditions: glasshouse, sprays at BBCH 39 and 59
# [10] = 7 days after second fungicide application
# [11] = 14 days after second fungicide application
# [12] = 21 days after second fungicide application
# [13] = 28 days after second fungicide application
# [14] = 35 days after second fungicide application
# [15] = 42 days after second fungicide application
# [16] = 68 days after second fungicide application (so in the source)
# [17] = 75 days after second fungicide application (so in the source)
# [18] = 82 days after second fungicide application (so in the source)
# [19] = 89 days after second fungicide application (so in the source)
# [20] = 96 days after second fungicide application (so in the source)
# [21] = 103 days after second fungicide application (so in the source)
# [22] = 110 days after second fungicide application (so in the source)
# [23] = 117 days after second fungicide application (so in the source)
structure (smiles),measurement,setting,value
CCCN(CC)CC1COC2(CCC(C(C)(C)C)CC2)O1 (centres unmarked) [Spiroxamine],Chlorophyll content,"wheat variety Ritmo [1]; BBCH 75 (mature milk), leaf F",1471 µg/g
same,Chlorophyll content,"wheat variety Ritmo [1]; BBCH 75 (mature milk), leaf F-1",1245 µg/g
same,Chlorophyll content,"wheat variety Ritmo [1]; BBCH 75 (mature milk), leaf F-2",707 µg/g
same,Chlorophyll content,"wheat variety Ritmo [1]; BBCH 85 (mature dough), leaf F",114 µg/g
same,Chlorophyll content,"wheat variety Ritmo [1]; BBCH 85 (mature dough), leaf F-1",119 µg/g
same,Chlorophyll content,"wheat variety Ritmo [1]; BBCH 85 (mature dough), leaf F-2",147 µg/g
same,Ears/m^2,wheat variety Ritmo [2],409
same,Harvest Index,wheat variety Ritmo [2],59.3
same,Straw,wheat variety Ritmo [2],514 g m^−2
same,TKM (thousand-kernel mass),wheat variety Ritmo [2],44.2 g
same,Yield,wheat variety Ritmo [2],7.7 t ha^−1
same,Temperature (as a measure of the transpiration activity),"[3]; BBCH 75, ear",23.2 °C
same,Temperature (as a measure of the transpiration activity),"[3]; BBCH 75, leaf",22.4 °C
same,Temperature (as a measure of the transpiration activity),"[3]; BBCH 80, ear",20.2 °C
same,Temperature (as a measure of the transpiration activity),"[3]; BBCH 80, leaf",16.4 °C
same,Temperature (as a measure of the transpiration activity),"[3]; BBCH 85, ear",25.1 °C
same,Temperature (as a measure of the transpiration activity),"[3]; BBCH 85, leaf",23.7 °C
same,Temperature (as a measure of the transpiration activity),"[3]; BBCH 90, ear",24.2 °C
same,Temperature (as a measure of the transpiration activity),"[3]; BBCH 90, lear (so in the source)",23.2 °C
same,Photosynthesis (gas exchange activity of wheat ears),[4],−2.36 a CO2 per ear
same,Respiration (gas exchange activity of wheat ears),[4],2.82 b CO2 per ear
same,green leaf area of the flag leaf,wheat variety Ritmo [5]; [10],98.3 % leaf area
same,green leaf area of the second-from-top leaf (F-1),wheat variety Ritmo [5]; [10],97.4 % leaf area
same,green leaf area of the third-from-top leaf (F-2),wheat variety Ritmo [5]; [10],94.1 % leaf area
same,green leaf area of the flag leaf,wheat variety Ritmo [5]; [11],97.9 % leaf area
same,green leaf area of the second-from-top leaf (F-1),wheat variety Ritmo [5]; [11],95.8 % leaf area
same,green leaf area of the third-from-top leaf (F-2),wheat variety Ritmo [5]; [11],93.3 % leaf area
same,green leaf area of the flag leaf,wheat variety Ritmo [5]; [12],92.7 % leaf area
same,green leaf area of the second-from-top leaf (F-1),wheat variety Ritmo [5]; [12],85.8 % leaf area
same,green leaf area of the third-from-top leaf (F-2),wheat variety Ritmo [5]; [12],78.1 % leaf area
same,green leaf area of the flag leaf,wheat variety Ritmo [5]; [13],82.3 % leaf area
same,green leaf area of the second-from-top leaf (F-1),wheat variety Ritmo [5]; [13],69.7 % leaf area
same,green leaf area of the third-from-top leaf (F-2),wheat variety Ritmo [5]; [13],51.7 % leaf area
same,green leaf area of the flag leaf,wheat variety Ritmo [5]; [14],48.6 % leaf area
same,green leaf area of the second-from-top leaf (F-1),wheat variety Ritmo [5]; [14],31.7 % leaf area
same,green leaf area of the third-from-top leaf (F-2),wheat variety Ritmo [5]; [14],15.7 % leaf area
same,green leaf area of the flag leaf,wheat variety Ritmo [5]; [15],5.5 % leaf area
same,green leaf area of the second-from-top leaf (F-1),wheat variety Ritmo [5]; [15],0 % leaf area
same,green leaf area of the third-from-top leaf (F-2),wheat variety Ritmo [5]; [15],0 % leaf area
same,green leaf area of the second-from-top leaf (F-1),wheat variety Ritmo [5]; 49 days after second fungicide application,0 % leaf area
same,Length of the flag leaf,[6],26.1 cm
same,Width of the flag leaf,[6],1.2 cm
same,Area of the flag leaf,[6]; calculated using the formula A = 0.67 × length × width,20.98 cm^2
same,Area [rel.] of the flag leaf,[6]; untreated = 100,96 rel.
same,time of heading of wheat (ears emerged),[7]; 45 days after sowing,10.8
same,time of heading of wheat (ears emerged),[7]; 50 days after sowing,34.1
same,time of heading of wheat (ears emerged),[7]; 55 days after sowing,46.4
same,time of heading of wheat (ears emerged),[7]; 60 days after sowing,57.5
same,time of heading of wheat (ears emerged),[7]; 65 days after sowing,75.5
same,time of heading of wheat (ears emerged),[7]; 70 days after sowing,83.4
same,time of heading of wheat (ears emerged),[7]; 75 days after sowing,91.1
same,time of heading of wheat (ears emerged),[7]; 80 days after sowing,99.1
same,time of heading of wheat (ears emerged),[7]; 85 days after sowing,100
same,green leaf area of the flag leaf (F),[8]; [16],100 % leaf area
same,green leaf area of the second-from-top leaf (F-1),[8]; [16],100 % leaf area
same,green leaf area of the third-from-top leaf (F-2),[8]; [16],100 % leaf area
same,green leaf area of the flag leaf (F),[8]; [17],100 % leaf area
same,green leaf area of the second-from-top leaf (F-1),[8]; [17],100 % leaf area
same,green leaf area of the third-from-top leaf (F-2),[8]; [17],95 % leaf area
same,green leaf area of the flag leaf (F),[8]; [18],100 % leaf area
same,green leaf area of the second-from-top leaf (F-1),[8]; [18],90 % leaf area
same,green leaf area of the third-from-top leaf (F-2),[8]; [18],73 % leaf area
same,green leaf area of the flag leaf (F),[8]; [19],92 % leaf area
same,green leaf area of the second-from-top leaf (F-1),[8]; [19],77 % leaf area
same,green leaf area of the third-from-top leaf (F-2),[8]; [19],45 % leaf area
same,green leaf area of the flag leaf (F),[8]; [20],80 % leaf area
same,green leaf area of the second-from-top leaf (F-1),[8]; [20],50 % leaf area
same,green leaf area of the third-from-top leaf (F-2),[8]; [20],19 % leaf area
same,green leaf area of the flag leaf (F),[8]; [21],55 % leaf area
same,green leaf area of the second-from-top leaf (F-1),[8]; [21],23 % leaf area
same,green leaf area of the third-from-top leaf (F-2),[8]; [21],7 % leaf area
same,green leaf area of the flag leaf (F),[8]; [22],23 % leaf area
same,green leaf area of the second-from-top leaf (F-1),[8]; [22],6 % leaf area
same,green leaf area of the third-from-top leaf (F-2),[8]; [22],0 % leaf area
same,green leaf area of the flag leaf (F),[8]; [23],3 % leaf area
same,green leaf area of the second-from-top leaf (F-1),[8]; [23],0 % leaf area
same,green leaf area of the third-from-top leaf (F-2),[8]; [23],0 % leaf area
same,Ears/pot,[9],40.9
same,Harvest Index,[9],36.3%
same,Kernels/ear,[9],23.2
same,Straw,[9],58.6 g/pot
same,TKM (thousand-kernel mass),[9],35.5 g
same,Yield,[9],33.4 g/pot
